According to ChEMBL document CHEMBL1145799, “Spirocyclopropyl beta-lactams as mechanism-based inhibitors of serine beta-lactamases. Synthesis by rhodium-catalyzed cyclopropanation of 6-diazopenicillanate sulfone” (J Med Chem, 2003):
Each block holds one molecule with its values, some of them ahead of it.

How the values were obtained:
[1] = molecular target: Beta-lactamase (Enterobacter cloacae, UniProt P05364); assay: In vitro inhibitory activity against Beta-lactamase AmpC of class C enzyme
[2] = molecular target: Beta-lactamase TEM (Escherichia coli) (UniProt P62593)
Chain of Beta-lactamase TEM (Escherichia coli) (P62593 whole entry): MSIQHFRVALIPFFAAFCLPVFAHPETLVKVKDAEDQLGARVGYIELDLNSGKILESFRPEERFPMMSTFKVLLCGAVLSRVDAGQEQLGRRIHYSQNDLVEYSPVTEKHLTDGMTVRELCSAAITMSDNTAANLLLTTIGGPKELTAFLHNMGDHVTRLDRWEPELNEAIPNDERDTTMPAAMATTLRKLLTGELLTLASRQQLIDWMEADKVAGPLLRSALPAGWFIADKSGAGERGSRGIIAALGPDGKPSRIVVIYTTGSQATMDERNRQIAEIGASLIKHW

[3] = molecular target: Beta-lactamase (Enterobacter cloacae) (UniProt P05364); details: Serratia marcescens
Chain of Beta-lactamase (Enterobacter cloacae) (P05364 21-381 limits assumed): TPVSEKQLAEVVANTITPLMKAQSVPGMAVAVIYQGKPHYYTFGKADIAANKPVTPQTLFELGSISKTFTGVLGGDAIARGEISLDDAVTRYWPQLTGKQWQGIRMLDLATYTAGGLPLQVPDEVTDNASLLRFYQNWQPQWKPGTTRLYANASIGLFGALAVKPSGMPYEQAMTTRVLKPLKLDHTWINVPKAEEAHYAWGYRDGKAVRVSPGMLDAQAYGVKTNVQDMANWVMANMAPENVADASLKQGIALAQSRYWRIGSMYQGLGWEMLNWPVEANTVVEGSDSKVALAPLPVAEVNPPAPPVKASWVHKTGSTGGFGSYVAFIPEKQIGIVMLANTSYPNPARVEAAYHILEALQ

[4] = molecular target: Beta-lactamase (Enterobacter cloacae) (UniProt P05364); details: Pseudomonas aeruginosa
Description: In vitro antibacterial activity against Pseudomonas aeruginosa Beta-lactamase AmpC of class C enzyme

[5] = test system: Escherichia coli; assay: In vitro antibacterial activity against Escherichia coli GC6265; format: functional
[6] = test system: Serratia marcescens; assay: In vitro antibacterial activity against Serratia marcescens GC4132 Beta-lactamase AmpC of class C enzyme; format: functional

Chain of Beta-lactamase (P05364 whole entry): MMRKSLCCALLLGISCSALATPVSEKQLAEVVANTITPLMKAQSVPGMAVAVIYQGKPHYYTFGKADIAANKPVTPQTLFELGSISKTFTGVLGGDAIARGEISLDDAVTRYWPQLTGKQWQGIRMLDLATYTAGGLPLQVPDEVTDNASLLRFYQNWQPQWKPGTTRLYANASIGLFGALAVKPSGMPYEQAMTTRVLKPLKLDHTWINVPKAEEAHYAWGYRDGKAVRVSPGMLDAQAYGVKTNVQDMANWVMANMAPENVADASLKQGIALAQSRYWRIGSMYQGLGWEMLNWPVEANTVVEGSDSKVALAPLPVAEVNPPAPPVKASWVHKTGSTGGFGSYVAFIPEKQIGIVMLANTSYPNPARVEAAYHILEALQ

IC50 [1]: 3200 nM
Compound: CC1(C)[C@H](C(=O)O)N2C(=O)[C@@]3(C[C@@H]3OC3CCCCC3)[C@H]2S1(=O)=O

Compound: CC(C)(C)[Si](C)(C)O[C@H]1C[C@]12C(=O)N1[C@@H](C(=O)O)C(C)(C)S(=O)(=O)[C@@H]12.CCN1CCN(C(=O)N[C@@H](C(=O)N[C@@H]2C(=O)N3[C@@H]2SC(C)(C)[C@@H]3C(=O)O)c2ccccc2)C(=O)C1=O [listing 1 of 2 here]
MIC [2]: 4 µg/mL
MIC [3]: 8 µg/mL
MIC [4]: 8 µg/mL

MIC [2]: 4 µg/mL
Compound: CCN1CCN(C(=O)N[C@@H](C(=O)N[C@@H]2C(=O)N3[C@@H]2SC(C)(C)[C@@H]3C(=O)O)c2ccccc2)C(=O)C1=O.C[C@]1(Cn2ccnn2)[C@H](C(=O)O)N2C(=O)C[C@H]2S1(=O)=O [listing 1 of 2 here]

Compound: CC(C)(C)[Si](C)(C)O[C@H]1CC12C(=O)N1C(C(=O)O)C(C)(C)S(=O)(=O)[C@@H]12 (single isomer, unassigned)
IC50 [1]: 4100 nM

MIC [5]: > 64 µg/mL
Compound: CCN1CCN(C(=O)N[C@@H](C(=O)N[C@@H]2C(=O)N3[C@@H]2SC(C)(C)[C@@H]3C(=O)O)c2ccccc2)C(=O)C1=O [PIPERACILLIN]

IC50 [1]: > 3200 nM
Compound: CC1(C)[C@H](C(=O)O)N2C(=O)[C@@]3(C[C@H]3OC3CCCCC3)[C@H]2S1(=O)=O

IC50 [1]: 30 nM
Compound: CC1(C)[C@H](C(=O)O)N2C(=O)[C@]3(C[C@@H]3OC3CCCCC3)[C@H]2S1(=O)=O

MIC [6]: 32 µg/mL
Compound: CCN1CCN(C(=O)N[C@@H](C(=O)N[C@@H]2C(=O)N3[C@@H]2SC(C)(C)[C@@H]3C(=O)O)c2ccccc2)C(=O)C1=O.C[C@]1(Cn2ccnn2)[C@H](C(=O)O)N2C(=O)C[C@H]2S1(=O)=O [listing 2 of 2 here]

MIC [5]: 64 µg/mL
Compound: CC1(C)[C@H](C(=O)O)N2C(=O)[C@]3(C[C@@H]3OC3CCCCC3)[C@H]2S1(=O)=O.CCN1CCN(C(=O)N[C@@H](C(=O)N[C@@H]2C(=O)N3[C@@H]2SC(C)(C)[C@@H]3C(=O)O)c2ccccc2)C(=O)C1=O [listing 1 of 2 here]

Compound: CC(C)(C)[Si](C)(C)O[C@H]1C[C@]12C(=O)N1[C@@H](C(=O)O)C(C)(C)S(=O)(=O)[C@@H]12.CCN1CCN(C(=O)N[C@@H](C(=O)N[C@@H]2C(=O)N3[C@@H]2SC(C)(C)[C@@H]3C(=O)O)c2ccccc2)C(=O)C1=O [listing 2 of 2 here]
MIC [5]: < 0.06 µg/mL

Compound: CC(C)(C)[Si](C)(C)O[C@@H]1CC12C(=O)N1[C@@H](C(=O)O)C(C)(C)S(=O)(=O)[C@@H]12 (single isomer, unassigned)
IC50 [1]: 400 nM

MIC [2]: 8 µg/mL
Compound: CC1(C)[C@H](C(=O)O)N2C(=O)[C@]3(C[C@@H]3OC3CCCCC3)[C@H]2S1(=O)=O.CCN1CCN(C(=O)N[C@@H](C(=O)N[C@@H]2C(=O)N3[C@@H]2SC(C)(C)[C@@H]3C(=O)O)c2ccccc2)C(=O)C1=O [listing 2 of 2 here]

Compound: CC(C)(C)[Si](C)(C)O[C@H]1C[C@]12C(=O)N1[C@@H](C(=O)O)C(C)(C)S(=O)(=O)[C@@H]12
IC50 [1]: 20 nM
